Assay results published in ChEMBL document CHEMBL2385046, “Dihydrooxazines As Inhibitors of BACE-1 or BACE-2” (ACS Med Chem Lett, 2013).

Assays:
Beta-secretase 1 = Beta-secretase 1 (Homo sapiens, UniProt P56817); experiment: Inhibition of recombinant human BACE1 extracellular domain expressed in baculovirus using Q-C(HS03)-lle-Asp-Leu-Ala-Val-Leu-Asp-HN-CH2-CH2-Mca as substrate incubated for 1 hr measured every 1 min for 15 mins by fluorescence assay
Beta-secretase 2 = target: T1, Beta-secretase 2 (Homo sapiens, UniProt Q9Y5Z0); experiment: Inhibition of recombinant human BACE2 extracellular domain expressed in baculovirus using Q-C(HS03)-lle-Asp-Leu-Ala-Val-Leu-Asp-HN-CH2-CH2-Mca as substrate incubated for 1 hr measured every 1 min for 15 mins by fluorescence assay
T1 sequence (Q9Y5Z0 whole entry): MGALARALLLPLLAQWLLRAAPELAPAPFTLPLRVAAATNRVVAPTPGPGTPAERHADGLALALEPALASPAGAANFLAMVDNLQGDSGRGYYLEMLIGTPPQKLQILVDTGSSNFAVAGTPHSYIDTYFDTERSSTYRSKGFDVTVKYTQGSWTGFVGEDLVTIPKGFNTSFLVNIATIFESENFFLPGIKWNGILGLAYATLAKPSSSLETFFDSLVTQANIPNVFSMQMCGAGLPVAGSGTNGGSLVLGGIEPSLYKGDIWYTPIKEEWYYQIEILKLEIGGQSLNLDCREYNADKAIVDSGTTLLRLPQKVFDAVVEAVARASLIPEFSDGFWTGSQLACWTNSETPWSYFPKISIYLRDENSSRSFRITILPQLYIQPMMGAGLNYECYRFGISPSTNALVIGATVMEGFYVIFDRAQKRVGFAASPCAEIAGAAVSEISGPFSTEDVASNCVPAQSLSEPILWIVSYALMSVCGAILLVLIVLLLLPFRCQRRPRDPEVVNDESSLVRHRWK

Beta-secretase (BACE) = Beta-secretase (BACE) (Homo sapiens, UniProt Q9Y5Z0+P56817); experiment: Inhibition of BACE1/BACE2 (unknown origin) transfected in CHO cells assessed as release of amyloid beta (1 to 40) after 24 hrs by immunoassay; format: cell-based
Rattus norvegicus [1] = experiment: Antialzheimer activity in Sprague-Dawley rat assessed as lowering of amyloid beta level in CSF at 10 mg/kg, po after 4 hrs relative to vehicle-treated control; format: functional
Rattus norvegicus [2] = experiment: Antialzheimer activity in Sprague-Dawley rat assessed as lowering of amyloid beta level in forebrain at 10 mg/kg, po after 4 hrs relative to vehicle-treated control; format: functional

Beta-secretase 1, sequence (P56817 whole entry, the tested form may be a part): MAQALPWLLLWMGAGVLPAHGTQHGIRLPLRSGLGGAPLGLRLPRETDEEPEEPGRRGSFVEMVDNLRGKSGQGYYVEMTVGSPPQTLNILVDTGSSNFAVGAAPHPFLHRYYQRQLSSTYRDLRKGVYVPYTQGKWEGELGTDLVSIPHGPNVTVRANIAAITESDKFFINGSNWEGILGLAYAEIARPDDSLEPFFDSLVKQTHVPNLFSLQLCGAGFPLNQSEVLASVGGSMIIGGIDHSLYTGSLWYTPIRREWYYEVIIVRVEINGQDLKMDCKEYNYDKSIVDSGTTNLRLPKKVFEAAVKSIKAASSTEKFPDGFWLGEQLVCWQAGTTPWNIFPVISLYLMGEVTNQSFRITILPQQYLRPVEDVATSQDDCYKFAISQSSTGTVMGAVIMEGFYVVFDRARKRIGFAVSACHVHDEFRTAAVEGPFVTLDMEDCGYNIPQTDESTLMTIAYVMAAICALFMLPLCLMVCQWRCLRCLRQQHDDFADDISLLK

| SMILES | IC50 (Beta-secretase 1) [nM] | IC50 (Beta-secretase 2) [nM] | IC50 (Beta-secretase (BACE)) [nM] | Activity (Rattus norvegicus [1]) [%] | Activity (Rattus norvegicus [2]) [%] |
| --- | --- | --- | --- | --- | --- |
| C[C@]1(c2nc(NC(=O)c3ccc(C#N)cn3)ccc2F)N=C(N)OCC1(F)F | 12 | 66 | 7 |  |  |
| C[C@]1(c2nc(NC(=O)c3ncc(C#N)cc3Cl)ccc2F)N=C(N)OCC1(F)F |  |  | 8 | -70.7 | -67.1 |
| CC1(C)OC(N)=N[C@](C)(c2nc(NC(=O)c3ncc(C#N)cc3Cl)ccc2F)C1(F)F |  |  |  | -35.3 | -20 |
| C[C@]1(c2nc(NC(=O)c3ncc(C(F)(F)F)cc3Cl)ccc2F)N=C(N)OCC1(F)F |  |  |  | -67.9 | -63.6 |
| C[C@]1(c2nc(NC(=O)c3nn(C(F)F)cc3Cl)ccc2F)N=C(N)OCC1(F)F |  |  | 13 | -55.2 | -46.6 |

Continued, in another order:

| IC50 (Beta-secretase 1) [nM] | IC50 (Beta-secretase 2) [nM] | IC50 (Beta-secretase (BACE)) [nM] | SMILES | Activity (Rattus norvegicus [1]) [%] | Activity (Rattus norvegicus [2]) [%] |
| --- | --- | --- | --- | --- | --- |
|  |  | 12 | C[C@]1(c2nc(NC(=O)c3ncc(Cl)cc3Cl)ccc2F)N=C(N)OCC1(F)F |  |  |
|  |  | 440 | C[C@]1(c2nc(NC(=O)c3ncc(OCC(F)F)nc3N)ccc2F)N=C(N)OCC1(F)F |  |  |
